# Earlier results as cited in patent US20180346745A1, “WATER-BASED INK COMPOSITION FOR INK JET RECORDING AND COLORING MATERIAL LIQUID” (Seiko Epson Corporation, priority 2017, published 2018).
# Conditions: value defined by OECD Test Guideline 107
row,SMILES,log P (water-octanol partition coefficient)
1,CCCCOCCOCCO [butyl diglycol],0.56
2,"CCCCCOCC(O)CO (centres unmarked) [3-pentyloxy-1,2-propanediol]",0.83
3,CCCCOCC(C)O (centres unmarked) [propylene glycol monobutyl ether],1.14
4,CCCOCC(C)O (centres unmarked) [propylene glycol monopropyl ether],0.61
5,"CCCCCCC(O)CO (centres unmarked) [1,2-octane diol]",1.32
